In patent EP1096933B1, “USE OF AN INHIBITOR OF CYTOCHROME P450 OPTIONALLY COMBINED WITH AN ANTIFUNGAL AGENT FOR TREATING MYCOSES” (priority 1998, dated 2000):
Like-named read-outs stand apart in the source and are kept apart here.

Experiments:
Assay in all cases: growth of strains streaked on Sabouraud agar containing the products
Format in all cases: cell-based
Microsporum persicolor = conditions: Nannizzia persicolor, Micro.Persicolor, read-out: % DE CROISSANCE; for activity at 10 µg/mL: 10µg/ml each product; for activity at 1 µg/mL: Econazole 1µg/ml
Experimental: (§1) Ces molécules ont été incorporées dans un milieu gélosé dit de Sabouraud (peptone 10g/l, glucose 10 g/l, gomme agar 15 g/l).
(§2) Des souches de diverses espèces de champignons ont été ensemencées par stries par la méthode de Stires.
(§3) Le pourcentage de croissance a été mesuré au cours du temps, pour des périodes allant jusqu'à 21 jours, pour certaines des souches testées.
(§4) Les quantités de pipéronyl butoxyde, et de cyclopyroxolamine utilisées sont identiques et sont de 10 ou 20 µg/ml dans le cas de l'association entre ces deux composés.
(§5) Dans le cas de l'association entre le pipéronyl butoxyde et l'éconazole, elles sont respectivement de 10 ou 20 µg/ml de pipéronyl butoxyde et de 1 µg/ml d'éconazole.
(§6) Des souches appartenant aux espèces suivantes ont été testées: Microsporum canis, Trichophyton rubrum, Trichophyton interdigitale, Trichophyton mentagrophytes, Microsporum persicolor, Epidermophyton floccosum, Trichophyton violaceum et Trichophyton soudanense.
(§7) L'activité du pipéronyl butoxyde seul a été testée à diverses concentrations, comme indiqué dans le tableau 1 sur le milieu de Sabouraud, dépourvu de tout autre fongicide.

[1] = system: Trichophyton mentagrophytes; conditions: Tric.Mentagophytes, read-out: % DE CROISSANCE
Experimental: as §1, §2, §3, §4, §5, §6, §7

Trichophyton rubrum = conditions: Tric.Rubrum, read-out: % DE CROISSANCE
Experimental: as §1, §2, §3, §4, §5, §6, §7

[2] = system: Trichophyton interdigitale; conditions: Tric.Interdigitale, read-out: % DE CROISSANCE
Experimental: as §1, §2, §3, §4, §5, §6, §7

Trichophyton soudanense = conditions: Tric.Soudanese, read-out: % DE CROISSANCE
Experimental: as §1, §2, §3, §4, §5, §6, §7

Epidermophyton floccosum = conditions: Epid.Flocosum, read-out: % DE CROISSANCE
Experimental: as §1, §2, §3, §4, §5, §6, §7

Trichophyton violaceum = conditions: Tric.Violaceum, read-out: % DE CROISSANCE
Experimental: as §1, §2, §3, §4, §5, §6, §7

Microsporum canis = conditions: read-out: % DE CROISSANCE; for activity at 1 µg/mL: Micro. Canis
Experimental: as §1, §2, §3, §4, §5, §6, §7

[3] = 144 h, J6, 20µg/ml each product
[4] = 240 h, J10, 20µg/ml each product
[5] = 336 h, J14, 20µg/ml each product
[6] = 144 h, J6, 10µg/ml each product
[7] = 240 h, J10, 10µg/ml each product
[8] = 336 h, J14, 10µg/ml each product

Cc1cc(C2CCCCC2)n(O)c(=O)c1 [Cyclopiroxolamine, cyclopiroxolamine]
activity at 10 µg/mL (Microsporum persicolor; 0 h, J0): 0%
activity at 10 µg/mL (Microsporum persicolor; 96 h, J4): 0%
activity at 10 µg/mL (Microsporum persicolor; 144 h, J6): 30%
activity at 10 µg/mL (Microsporum persicolor; 240 h, J10): 75%
activity at 10 µg/mL (Microsporum persicolor; 336 h, J14): 100%
activity at 20 µg/mL ([1]; 0 h, J0, 20µg/ml each product): 0%
activity at 20 µg/mL ([1]; 96 h, J4, 20µg/ml each product): 5%
activity at 20 µg/mL [1, 3]: 60%
activity at 20 µg/mL [1, 4]: 100%
activity at 20 µg/mL [1, 5]: 100%
activity at 20 µg/mL (Trichophyton rubrum; 0 h, J0, 20µg/ml each product): 0%
activity at 20 µg/mL (Trichophyton rubrum; 96 h, J4, 20µg/ml each product): 0%
activity at 20 µg/mL (Trichophyton rubrum; [3]): 50%
activity at 20 µg/mL (Trichophyton rubrum; [4]): 80%
activity at 20 µg/mL (Trichophyton rubrum; [5]): 100%
activity at 20 µg/mL ([2]; 0 h, J0, 20µg/ml each product): 0%
activity at 20 µg/mL ([2]; 96 h, J4, 20µg/ml each product): 5%
activity at 20 µg/mL [2, 3]: 10%
activity at 20 µg/mL [2, 4]: 80%
activity at 20 µg/mL [2, 5]: 90%
activity at 10 µg/mL (Trichophyton soudanense; 0 h, J0, 10µg/ml each product): 0%
activity at 10 µg/mL (Trichophyton soudanense; 96 h, J4, 10µg/ml each product): 0%
activity at 10 µg/mL (Trichophyton soudanense; [6]): 0%
activity at 10 µg/mL (Trichophyton soudanense; [7]): 30%
activity at 10 µg/mL (Trichophyton soudanense; [8]): 60%
activity at 10 µg/mL (Epidermophyton floccosum; 0 h, J0, 10µg/ml each product): 0%
activity at 10 µg/mL (Epidermophyton floccosum; 96 h, J4, 10µg/ml each product): 0%
activity at 10 µg/mL (Epidermophyton floccosum; [6]): 0%
activity at 10 µg/mL (Epidermophyton floccosum; [7]): 85%
activity at 10 µg/mL (Epidermophyton floccosum; [8]): 100%
activity at 10 µg/mL (Trichophyton violaceum; 0 h, J0, 10µg/ml each product): 0%
activity at 10 µg/mL (Trichophyton violaceum; 96 h, J4, 10µg/ml each product): 0%
activity at 10 µg/mL (Trichophyton violaceum; [6]): 40%
activity at 10 µg/mL (Trichophyton violaceum; [7]): 60%
activity at 10 µg/mL (Trichophyton violaceum; [8]): 100%
activity at 20 µg/mL (Microsporum canis; 0 h): 0%
activity at 20 µg/mL (Microsporum canis; 96 h): 5%
activity at 20 µg/mL (Microsporum canis; 144 h): 20%
activity at 20 µg/mL (Microsporum canis; 240 h): 60%
activity at 20 µg/mL (Microsporum canis; 336 h): 100%

Clc1ccc(COC(Cn2ccnc2)c2ccc(Cl)cc2Cl)cc1 (centres unmarked) [Econazole, éconazole]
activity at 1 µg/mL (Microsporum persicolor; 0 h, J0): 0%
activity at 1 µg/mL (Microsporum persicolor; 96 h, J4): 0%
activity at 1 µg/mL (Microsporum persicolor; 144 h, J6): 0%
activity at 1 µg/mL (Microsporum persicolor; 240 h, J10): 15%
activity at 1 µg/mL (Microsporum persicolor; 336 h, J14): 50%
activity at 1 µg/mL ([1]; 0 h, J0, Econazole 1µg/ml): 0%
activity at 1 µg/mL ([1]; 96 h, J4, Econazole 1µg/ml): 5%
activity at 1 µg/mL ([1]; 144 h, J6, Econazole 1µg/ml): 10%
activity at 1 µg/mL ([1]; 240 h, J10, Econazole 1µg/ml): 30%
activity at 1 µg/mL ([1]; 336 h, J14, Econazole 1µg/ml): 40%
activity at 1 µg/mL (Trichophyton rubrum; 0 h, J0, Econazole 1µg/ml): 0%
activity at 1 µg/mL (Trichophyton rubrum; 96 h, J4, Econazole 1µg/ml): 0%
activity at 1 µg/mL (Trichophyton rubrum; 144 h, J6, Econazole 1µg/ml): 20%
activity at 1 µg/mL (Trichophyton rubrum; 240 h, J10, Econazole 1µg/ml): 60%
activity at 1 µg/mL (Trichophyton rubrum; 336 h, J14, Econazole 1µg/ml): 70%
activity at 1 µg/mL ([2]; 0 h, J0, Econazole 1µg/ml): 0%
activity at 1 µg/mL ([2]; 96 h, J4, Econazole 1µg/ml): 5%
activity at 1 µg/mL ([2]; 144 h, J6, Econazole 1µg/ml): 5%
activity at 1 µg/mL ([2]; 240 h, J10, Econazole 1µg/ml): 40%
activity at 1 µg/mL ([2]; 336 h, J14, Econazole 1µg/ml): 60%
activity at 1 µg/mL (Trichophyton soudanense; 0 h, J0, Econazole 1µg/ml): 0%
activity at 1 µg/mL (Trichophyton soudanense; 96 h, J4, Econazole 1µg/ml): 0%
activity at 1 µg/mL (Trichophyton soudanense; 144 h, J6, Econazole 1µg/ml): 0%
activity at 1 µg/mL (Trichophyton soudanense; 240 h, J10, Econazole 1µg/ml): 30%
activity at 1 µg/mL (Trichophyton soudanense; 336 h, J14, Econazole 1µg/ml): 60%
activity at 1 µg/mL (Epidermophyton floccosum; 0 h, J0, Econazole 1µg/ml): 0%
activity at 1 µg/mL (Epidermophyton floccosum; 96 h, J4, Econazole 1µg/ml): 0%
activity at 1 µg/mL (Epidermophyton floccosum; 144 h, J6, Econazole 1µg/ml): 0%
activity at 1 µg/mL (Epidermophyton floccosum; 240 h, J10, Econazole 1µg/ml): 5%
activity at 1 µg/mL (Epidermophyton floccosum; 336 h, J14, Econazole 1µg/ml): 10%
activity at 1 µg/mL (Trichophyton violaceum; 0 h, J0, Econazole 1µg/ml): 0%
activity at 1 µg/mL (Trichophyton violaceum; 96 h, J4, Econazole 1µg/ml): 0%
activity at 1 µg/mL (Trichophyton violaceum; 144 h, J6, Econazole 1µg/ml): 40%
activity at 1 µg/mL (Trichophyton violaceum; 240 h, J10, Econazole 1µg/ml): 60%
activity at 1 µg/mL (Trichophyton violaceum; 336 h, J14, Econazole 1µg/ml): 100%
activity at 1 µg/mL (Microsporum canis; 0 h, J0, Econazole 1µg/ml): 0%
activity at 1 µg/mL (Microsporum canis; 96 h, J4, Econazole 1µg/ml): 0%
activity at 1 µg/mL (Microsporum canis; 144 h, J6, Econazole 1µg/ml): 10%
activity at 1 µg/mL (Microsporum canis; 240 h, J10, Econazole 1µg/ml): 40%
activity at 1 µg/mL (Microsporum canis; 336 h, J14, Econazole 1µg/ml): 80%
